Assay results reported in article PMC5834442, “Identifying inhibitors of the Leishmania inositol phosphorylceramide synthase with antiprotozoal activity using a yeast-based assay and ultra-high throughput screening platform” (Scientific Reports, 2018).
Entries after “also recorded” stand apart in the source; their conditions may differ. Where two headings read alike, the source gives them in different places.

Tests used:
[1] = tested on: L. donovani (MHOM/SD/62/1S-CL2D, LdBOB) axenic amastigotes; test: Leishmania donovani axenic amastigote dose response assay (resazurin); assay type: cell-based
[2] = tested on: intra-macrophage Leishmania donovani amastigotes; test: Intramacrophage Leishmania donovani assay (high content imaging); assay type: cell-based; conditions: for IC50: Leishmania donovani
LmjFIPCS = target: T1, LmjFIPCS (Leishmania major, UniProt E9AFX2); test: Biochemical LmjFIPCS assay with CHAPS-washed microsomal membranes; conditions: for IC50: read-out: pIC50 against LmjFIPCS in vitro (converted)
T1 construct: The complete open reading frames of LmjFIPCS and AUR1p was amplified from genomic DNA; made in house
T1 sequence (E9AFX2 whole entry): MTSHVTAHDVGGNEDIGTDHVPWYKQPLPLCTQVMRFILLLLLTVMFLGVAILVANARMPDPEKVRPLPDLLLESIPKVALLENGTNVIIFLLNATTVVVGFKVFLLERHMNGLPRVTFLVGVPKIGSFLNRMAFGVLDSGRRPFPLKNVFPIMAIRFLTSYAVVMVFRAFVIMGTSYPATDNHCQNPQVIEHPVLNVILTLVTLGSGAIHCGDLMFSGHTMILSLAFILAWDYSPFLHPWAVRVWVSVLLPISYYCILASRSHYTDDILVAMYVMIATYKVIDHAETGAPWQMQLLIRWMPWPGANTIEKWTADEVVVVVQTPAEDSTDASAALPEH
Procedure: Utilizing the availability of an in-house designed and validated biochemical assay for LmjFIPCS[19],[22], following re-synthesis in the free-base form (Aptuit, Verona, Italy) the two benzazepane hits were biochemically analyzed in a dose response assay (8 compound concentrations between 100 μM and 46 nM; Fig. 5). […].
Microsomal material was prepared and CHAPS washed from α ade^−.lys^−.leu^−.Δaur1^−.pESC-LEU_ LmjFIPCS as previously described[19],[22]. Briefly, each compound at the desired concentration was incubated, in at least triplicate, in 96-well plates (Corning) in phosphate buffer (71.4 mM, pH 7.0) with PI (100 µM, final concentration, Avanti Polar Lipids), CHAPS (600 µM, Sigma-Aldrich) and CHAPS-washed microsomal membranes (0.6 U enzyme per reaction) for 15 minutes at 30 °C. NBD-C6-ceramide (5 µM; ThermoFisher) was added, final volume of 40 µl per well, and the plates incubated at 30 °C for a further 25 minutes. […]. Analyses were carried out using GraphPad Prism 7.

[3] = tested on: L. major (MHOM/IL/81/Friedlin) wild type; test: L. major axenic cell assay (alamarBlue), wild type; assay type: cell-based; conditions: Leishmania major; −logIC50 M; 72 hours; read-out: pIC50 against wild type Leishmania major (converted)
Source text: (§1) However, whilst compound 1 was antiprotozoal and a potent IPC synthase inhibitor, it was unclear whether the mode of action was on-target. To analyze this further, the in-house availability of a sphingolipid mutant L. major (Δlcb2) was exploited. This line[24] lacks serine palmitoyltransferase activity, and whilst LmjFIPCS is still present it is redundant in the absence of in situ substrate. […] […]. Therefore, it is likely that off-target activity has a role in the antileishmanial activity of this benzazepane.
(§2) From a previously described protocol, L. major (MHOM/IL/81/Friedlin, wild type and ΔLCB2 mutant)[24] were added to 96-well plates (Corning) at 1 × 10^4 ml^−1 in growth media with appropriate concentrations of compounds and controls (vehicle and assay media alone, with the robustness of the platform indicated by Z’ values > 0.5)[29] in 100 µl. […]. Analyses were carried out using GraphPad Prism 7.

L. major Δlcb2 mutant = test: L. major axenic cell assay (alamarBlue), sphingolipid mutant Δlcb2; assay type: cell-based; conditions: Leishmania major, 72 h, read-out: pIC50 against L. major Δlcb2 mutant (converted)
Source text: as §1, §2

in cellulo LmjFIPCS = target: T2, in cellulo LmjFIPCS (Leishmania major, UniProt E9AFX2); test: In cellulo IPC synthase assay (BODIPY FL C5-ceramide incorporation into IPC, HPTLC); assay type: cell-based; conditions: L. major ΔLCB2, 10 μM of compound, compared with compound 1
T2 construct: endogenous in cells; host or cells: L. major (MHOM/IL/81/Friedlin) Δlcb2 mutant
T2 sequence (E9AFX2 whole entry): as above
Procedure: Figure 7 In cellulo activity against LmjFIPCS. […] L. major ΔLCB2 treated with 10 μM of compound prior to metabolic labelling with BODIPY FL C5-ceramide. Inhibition of the incorporation of label into IPC was measured following HPTLC in comparison with a control (vehicle treated). […]. P = 0.006 in students’ t-test indicating the difference is significant (**≤ 0.01).
The L. major Δlcb2 mutant, maintained in Schneider’s media (Sigma-Aldrich) with 15% sera (ThermoFisher), were washed and 200 µl, at 1 × 10^7 ml^−1, incubated in serum free media for 60 minutes at 26 °C before the addition of 10 µM of the compounds, in at least triplicate, and further incubation for 18 hours. Subsequently, the reaction was initiated by the addition of BODIPY FL C5-ceramide complexed to BSA (1.25 µl of 0.5 mM, ThermoFisher). Following further incubation at 26 °C for 1 hour, the lipids were extracted by phase separation in chloroform:methanol:water (10:10:3, 200 µl) and fractionated on HTPLC plates, as previously. The fluorescence was read at Ex475/Em520 using a Fuji FLA-3000 plate reader and AIDA Image Analyser software (version 3.52).

HepG2 cells = test: Mammalian cell cytotoxicity assay (CellTiter-Glo); assay type: cell-based, human; conditions: for IC50: Homo sapiens, -logIC50 mol against HepG2, read-out: PIC50 HepG2 (converted)
THP-1 macrophages = test: Host cell toxicity in the intramacrophage assay; assay type: cell-based, human; conditions: for IC50: Homo sapiens, THP-1 host cells in intramacrophage assay, read-out: pIC50 THP-1 (converted)
[4] = −logIC50 M, 72 hours, read-out: pIC50 against axenic L. donovani amastigotes (converted)
[5] = −logIC50 M, L. donovani infected THP-1 macrophages, 96 hours, read-out: pIC50 against intra-macrophage L. donovani amastigotes (converted)
[6] = −logIC50 M, biochemical assay, at least 3 independent experiments
[7] = -logIC50 mol against L. donovani (LdBOB) axenic amastigotes, read-out: pIC50 Axenic (converted)
[8] = selectivity: pIC50 axenic minus pIC50 HepG2
[9] = intramacrophage L. donovani, read-out: pIC50 InMac (converted)
[10] = selectivity: pIC50 InMac minus pIC50 THP-1
[11] = selectivity, pIC50 axenic minus pIC50 HepG2
[12] = intramacrophage L. donovani amastigotes, read-out: pIC50 InMac (converted)
[13] = selectivity, pIC50 InMac minus pIC50 THP-1

SMILES | IC50 [1, 7] [µM] | IC50 (HepG2 cells) [µM] | pSI v HepG2 (HepG2 cells; [8]) | IC50 [2, 9] [µM] | IC50 (THP-1 macrophages) [µM] | pSI v THP-1 (THP-1 macrophages; [10]) | also measured
O=S(=O)(c1ccc2c(c1)CCN(Cc1cccnc1)CC2)n1ccc2c(F)cccc21 [compound 2] | – | – | – | – | – | – | IC50 [1, 4]: 0.398 µM; IC50 [2, 5]: 2 µM; IC50 (LmjFIPCS; [6]): 6.31 µM
O=S(=O)(c1ccc2c(c1)CCN(Cc1ccc(F)cc1)CC2)n1ccc2c(F)cccc21 [compound 7] | – | – | – | – | – | – | pIC50 against intra-macrophage L. donovani amastigotes ([2]; −logIC50 M, L. donovani infected THP-1 macrophages, 96 hours): lost; maximal inhibition of LmjFIPCS in vitro (LmjFIPCS; even at higher concentrations): ≤ 60%; IC50 (LmjFIPCS; [6]): 0.0631 µM; IC50 [3]: 3.16 µM; IC50 (L. major Δlcb2 mutant): > 10 µM; in cellulo inhibition of IPC synthase activity (incorporation of BODIPY FL C5-ceramide into IPC) (in cellulo LmjFIPCS): considerably greater in cellulo inhibition of IPC synthase activity than compound 1; also recorded: greater activity against in cellulo LmjFIPCS than compound 1
Cc1ccnc(-c2nn[nH]c2Br)c1 [LK45855-125A1] | 1.74 | > 100 | 1.76 | 33.1 | 32.4 | -0.01 | –
CCCCCNC(=O)c1c(O)c2ccccc2[nH]c1=O [ST/243992] | 2.09 | > 100 | 1.68 | > 50.1 | > 50.1 | 0.00 | –
O=C(O)c1ccccc1Sc1ncnc2scc(-c3ccccc3)c12 [ST/837236] | 9.77 | > 100 | – | – | > 50.1 | – | pSI v HepG2 (HepG2 cells; [11]): 1.01; IC50 [2, 12]: 40.7 µM; pSI v THP-1 (THP-1 macrophages; [13]): 0.09
Cc1ncccc1Oc1ncc(Cl)cc1S(=O)(=O)Nc1cccc(Cl)c1F [AV207107-107A1] | 8.13 | > 100 | 1.09 | > 50.1 | > 50.1 | 0.00 | –
O=C(O)C(F)(F)F.O=S(=O)(c1ccc2c(c1)CCN(Cc1ccc(F)cc1)CC2)n1cccc1 [CS100462-069A11B16] | 0.0229 | > 100 | – | 3.31 | 31.6 | 0.98 | pSI v HepG2 (HepG2 cells): 3.64
O=S(=O)(c1ccc2c(c1)CCN(Cc1cccnc1)CC2)n1cccc1 [compound 6] | – | – | – | – | – | – | pIC50 against LmjFIPCS in vitro (LmjFIPCS; [6]): lost activity
COc1ccc(S(=O)(=O)Nc2cc([N+](=O)[O-])ccc2Cl)cc1C(C)C [ST/1153644] | 10 | > 100 | 1.00 | 38.9 | > 50.1 | 0.11 | –
CC(=O)N1N=C(COc2ccc(Cl)cc2C)OC1c1cccs1 (stereo not drawn) [ST/1455408] | 7.76 | 97.7 | 1.10 | > 50.1 | > 50.1 | 0.00 | –
Cc1cc(C)n2nc(S(=O)(=O)Nc3ccccc3[N+](=O)[O-])nc2n1 [ST/512740] | 9.33 | > 100 | 1.03 | > 50.1 | > 50.1 | 0.00 | –
COc1cccc(-c2csc(NC(=O)c3cccc(Cl)c3)c2C(=O)O)c1 [ST/266497] | 7.08 | > 100 | 1.15 | 45.7 | > 50.1 | 0.04 | –
CS(=O)(=O)c1oc(-c2ccc(F)cc2)nc1S(=O)(=O)c1ccc(Cl)cc1 [ST/1032211] | 0.437 | 17.4 | 1.60 | 4.27 | 3.63 | -0.07 | –
CC(C)CCN1C(=O)C(N)C(=O)N(CC2CCCCC2)c2ccccc21 (stereo not drawn) [VMTA/1987/36/2] | 2 | 81.3 | – | – | > 50.1 | – | pSI v HepG2 (HepG2 cells; [11]): 1.61; IC50 [2, 12]: 8.13 µM; pSI v THP-1 (THP-1 macrophages; [13]): 0.79
COc1cc(OC)cc(C(=O)Nc2nnc(-c3ccccc3Cl)o2)c1 [ST/709938] | 0.776 | 85.1 | 2.04 | 26.3 | > 50.1 | 0.28 | –
O=C(Nc1scc(-c2ccc(Br)cc2)c1C(=O)O)c1ccccc1F [ST/656010] | 8.32 | > 100 | 1.08 | > 50.1 | > 50.1 | 0.00 | –
O=S(=O)(c1ccc2c(c1)CCN(Cc1ccc(F)cc1)CC2)n1cccc1 [compound 1] | – | – | – | – | – | – | IC50 [1, 4]: 0.0251 µM; IC50 [2, 5]: 3.16 µM; IC50 (LmjFIPCS; [6]): 0.158 µM; IC50 [3]: 3.16 µM; IC50 (L. major Δlcb2 mutant): 3.16 µM
CN(C)S(=O)(=O)c1ccc(Cl)c(NS(=O)(=O)c2ccc(C(C)(C)C)cc2)c1 [ST/1238223] | 6.76 | > 100 | 1.17 | > 50.1 | > 50.1 | 0.00 | –
CC(=O)N1N=C(c2ccco2)OC1COc1ccc(Cl)cc1C (stereo not drawn) [ST/1451140] | 6.92 | > 100 | 1.16 | > 50.1 | > 50.1 | 0.00 | –
O=C(Nc1cccc(S(=O)(=O)Nc2ccccc2Cl)c1)c1ccc([N+](=O)[O-])o1 [ST/579040] | 0.49 | 22.4 | 1.66 | 11.2 | 12 | 0.03 | –
